Earlier results, collected in paper PMC7904743, “WIDOCK: a reactive docking protocol for virtual screening of covalent inhibitors” (Journal of Computer-Aided Molecular Design, 2021).
Where two headings read alike, the source gives them in different places.

What was measured:
[1] = thiol reactivity, cited from earlier work
[2] = test system: OTUB2; conditions: experimental actives if % labeling higher than 50%; cited from earlier work
[3] = test system: NUDT7; conditions: protein labeling at 200 μM; experimental actives if % labeling higher than 50%; cited from earlier work
[4] = natural log of average rate constant k
[5] = natural logarithm of average rate constant

Cc1cc(C)c(NC(=O)CCl)c(C)c1 [PCM-0102352, Cc1cc(C)c(NC(=O)CCl)c(C)c1]
ln(avg k) [1, 4]: -17.111 | ln(avg k) [1, 5]: -17.111 | OTUB2 % labeling [2]: 0% | NUDT7 % labeling [3]: 0%

Cc1ccc(C)c(S(=O)(=O)N2CCN(C(=O)CCl)CC2)c1 [PCM-0102353, Cc1ccc(C)c(S(=O)(=O)N2CCN(C(=O)CCl)CC2)c1]
ln(avg k) [1, 4]: -15.325 | ln(avg k) [1, 5]: -15.325 | OTUB2 % labeling [2]: 6% | NUDT7 % labeling [3]: 19%

Cc1ccc(Cl)cc1NC(=O)CCl [PCM-0102354, Cc1ccc(Cl)cc1NC(=O)CCl]
ln(avg k) [1, 4]: -16.394 | ln(avg k) [1, 5]: -16.394 | OTUB2 % labeling [2]: 0% | NUDT7 % labeling [3]: 0%

CC(C)(C)c1ccc(C(=O)NNC(=O)CCl)cc1 [PCM-0102355, CC(C)(C)c1ccc(C(=O)NNC(=O)CCl)cc1]
ln(avg k) [1, 4]: -17.324 | ln(avg k) [1, 5]: -17.324 | OTUB2 % labeling [2]: 66% | NUDT7 % labeling [3]: 0%

O=C(CCl)NCC1CCCO1 (stereo not shown) [PCM-0102356, O=C(CCl)NCC1CCCO1]
ln(avg k) [1, 4]: -16.672 | ln(avg k) [1, 5]: -16.672 | OTUB2 % labeling [2]: 5% | NUDT7 % labeling [3]: 0%

O=C(CCl)N1CCN(c2ccc(O)cc2)CC1 [PCM-0102357, O=C(CCl)N1CCN(c2ccc(O)cc2)CC1]
ln(avg k) [1, 4]: -15.487 | ln(avg k) [1, 5]: -15.487 | OTUB2 % labeling [2]: 0% | NUDT7 % labeling [3]: 0%

Cc1cccc(C(C)C)c1NC(=O)CCl [PCM-0102358, Cc1cccc(C(C)C)c1NC(=O)CCl]
ln(avg k) [1, 4]: -16.961 | ln(avg k) [1, 5]: -16.961 | OTUB2 % labeling [2]: 0% | NUDT7 % labeling [3]: 0%

O=C(CCl)NC(=O)NC12CC3CC(CC(C3)C1)C2 [PCM-0102360, O=C(CCl)NC(=O)NC12CC3CC(CC(C3)C1)C2]
ln(avg k) [1, 4]: -16.068 | ln(avg k) [1, 5]: -16.068 | OTUB2 % labeling [2]: 12% | NUDT7 % labeling [3]: 0%

O=C(CCl)N1CCN(S(=O)(=O)c2ccc(F)c(F)c2)CC1 [PCM-0102361, O=C(CCl)N1CCN(S(=O)(=O)c2ccc(F)c(F)c2)CC1]
ln(avg k) [1, 4]: -15.093 | ln(avg k) [1, 5]: -15.093 | OTUB2 % labeling [2]: 0% | NUDT7 % labeling [3]: 0%

O=C1CN(C(=O)CCl)c2ccccc2N1 [PCM-0102362, O=C1CN(C(=O)CCl)c2ccccc2N1]
ln(avg k) [1, 4]: -15.567 | ln(avg k) [1, 5]: -15.567 | OTUB2 % labeling [2]: 0% | NUDT7 % labeling [3]: 0%

O=C1CC(C(F)(F)F)N(C(=O)CCl)c2ccccc2N1 (stereo not shown) [PCM-0102363, O=C1CC(C(F)(F)F)N(C(=O)CCl)c2ccccc2N1]
ln(avg k) [1, 4]: -15.654 | ln(avg k) [1, 5]: -15.654 | OTUB2 % labeling [2]: 0% | NUDT7 % labeling [3]: 28%

O=C(CCl)Nc1cccc(F)c1 [PCM-0102364, O=C(CCl)Nc1cccc(F)c1]
ln(avg k) [1, 4]: -15.960 | ln(avg k) [1, 5]: -15.960 | OTUB2 % labeling [2]: 0% | NUDT7 % labeling [3]: 9%

CN(C)C(=O)CNC(=O)CCl [PCM-0102365, CN(C)C(=O)CNC(=O)CCl]
ln(avg k) [1, 4]: -17.142 | ln(avg k) [1, 5]: -17.142 | OTUB2 % labeling [2]: 0% | NUDT7 % labeling [3]: 0%

O=C(CCl)Nc1cc([N+](=O)[O-])ccc1Cl [PCM-0102366, O=C(CCl)Nc1cc([N+](=O)[O-])ccc1Cl]
ln(avg k) [1, 4]: -15.888 | ln(avg k) [1, 5]: -15.888 | OTUB2 % labeling [2]: 27% | NUDT7 % labeling [3]: 20%

COC(=O)c1sccc1NC(=O)CCl [PCM-0102367, COC(=O)c1sccc1NC(=O)CCl]
ln(avg k) [1, 4]: -15.715 | ln(avg k) [1, 5]: -15.715 | OTUB2 % labeling [2]: 0% | NUDT7 % labeling [3]: 12%

CN(C(=O)CCl)c1ccccc1 [PCM-0102368, CN(C(=O)CCl)c1ccccc1]
ln(avg k) [1, 4]: -15.648 | ln(avg k) [1, 5]: -15.648 | OTUB2 % labeling [2]: 0% | NUDT7 % labeling [3]: 0%

CCc1ccccc1NC(=O)CCl [PCM-0102369, CCc1ccccc1NC(=O)CCl]
ln(avg k) [1, 4]: -16.517 | ln(avg k) [1, 5]: -16.517 | OTUB2 % labeling [2]: 0% | NUDT7 % labeling [3]: 0%

COc1ccc(Cl)cc1NC(=O)CCl [PCM-0102370, COc1ccc(Cl)cc1NC(=O)CCl]
ln(avg k) [1, 4]: -15.854 | ln(avg k) [1, 5]: -15.854 | OTUB2 % labeling [2]: 18% | NUDT7 % labeling [3]: 23%

O=C(CCl)N(c1ccccc1)C1C=CS(=O)(=O)C1 (stereo not shown) [PCM-0102372, O=C(CCl)N(c1ccccc1)C1C=CS(=O)(=O)C1]
ln(avg k) [1, 4]: -15.071 | ln(avg k) [1, 5]: -15.071 | OTUB2 % labeling [2]: 0% | NUDT7 % labeling [3]: 28%

O=C(CCl)N1CCN(c2ccccc2F)CC1 [PCM-0102373, O=C(CCl)N1CCN(c2ccccc2F)CC1]
ln(avg k) [1, 4]: -15.871 | ln(avg k) [1, 5]: -15.871 | OTUB2 % labeling [2]: 0% | NUDT7 % labeling [3]: 0%

CC(NC(=O)CCl)c1ccc(Br)cc1 (stereo not shown) [PCM-0102374, CC(NC(=O)CCl)c1ccc(Br)cc1]
ln(avg k) [1, 4]: -16.325 | ln(avg k) [1, 5]: -16.325 | OTUB2 % labeling [2]: 34% | NUDT7 % labeling [3]: 23%

O=C(CCl)Nc1ccccc1N1CCCC1=O [PCM-0102375, O=C(CCl)Nc1ccccc1N1CCCC1=O]
ln(avg k) [1, 4]: -16.453 | ln(avg k) [1, 5]: -16.453 | OTUB2 % labeling [2]: 13% | NUDT7 % labeling [3]: 0%

O=C(CCl)NC(=O)Nc1ccccc1F [PCM-0102376, O=C(CCl)NC(=O)Nc1ccccc1F]
ln(avg k) [1, 4]: -15.900 | ln(avg k) [1, 5]: -15.900 | OTUB2 % labeling [2]: 0% | NUDT7 % labeling [3]: 0%

O=C(CCl)N1CCCCCCC1 [PCM-0102377, O=C(CCl)N1CCCCCCC1]
ln(avg k) [1, 4]: -15.780 | ln(avg k) [1, 5]: -15.780 | OTUB2 % labeling [2]: 0% | NUDT7 % labeling [3]: 0%

O=C(CCl)N1CCN(c2ncc(C(F)(F)F)cc2Cl)CC1 [PCM-0102378, O=C(CCl)N1CCN(c2ncc(C(F)(F)F)cc2Cl)CC1]
ln(avg k) [1, 4]: -15.476 | ln(avg k) [1, 5]: -15.476 | OTUB2 % labeling [2]: 5% | NUDT7 % labeling [3]: 14%

Cc1ccc(S(=O)(=O)N2CCN(C(=O)CCl)CC2)cc1C [PCM-0102379, Cc1ccc(S(=O)(=O)N2CCN(C(=O)CCl)CC2)cc1C]
ln(avg k) [1, 4]: -15.076 | ln(avg k) [1, 5]: -15.076 | OTUB2 % labeling [2]: 0% | NUDT7 % labeling [3]: 10%

O=C(CCl)N1N=C(c2ccco2)CC1c1ccco1 (stereo not shown) [PCM-0102380, O=C(CCl)N1N=C(c2ccco2)CC1c1ccco1]
ln(avg k) [1, 4]: -15.395 | ln(avg k) [1, 5]: -15.395 | OTUB2 % labeling [2]: 0% | NUDT7 % labeling [3]: 54%

N#CC(c1ccccc1)N1CCN(C(=O)CCl)CC1 (stereo not shown) [PCM-0102381, N#CC(c1ccccc1)N1CCN(C(=O)CCl)CC1]
ln(avg k) [1, 4]: -15.106 | ln(avg k) [1, 5]: -15.106 | OTUB2 % labeling [2]: 0% | NUDT7 % labeling [3]: 11%

Cc1ccc(-c2cc(NC(=O)CCl)on2)cc1 [PCM-0102382, Cc1ccc(-c2cc(NC(=O)CCl)on2)cc1]
ln(avg k) [1, 4]: -15.819 | ln(avg k) [1, 5]: -15.819 | OTUB2 % labeling [2]: 45% | NUDT7 % labeling [3]: 81%

O=C(CCl)NNC(=O)C1COc2ccccc2O1 (stereo not shown) [PCM-0102384, O=C(CCl)NNC(=O)C1COc2ccccc2O1]
ln(avg k) [1, 4]: -17.088 | ln(avg k) [1, 5]: -17.088 | OTUB2 % labeling [2]: 27% | NUDT7 % labeling [3]: 0%

O=C(CCl)N1CCN(Cc2ccc3c(c2)OCCO3)CC1 [PCM-0102386, O=C(CCl)N1CCN(Cc2ccc3c(c2)OCCO3)CC1]
ln(avg k) [1, 4]: -15.669 | ln(avg k) [1, 5]: -15.669 | OTUB2 % labeling [2]: 0% | NUDT7 % labeling [3]: 0%

O=C(CCl)N1CCN(Cc2ccccc2F)CC1 [PCM-0102387, O=C(CCl)N1CCN(Cc2ccccc2F)CC1]
ln(avg k) [1, 4]: -15.308 | ln(avg k) [1, 5]: -15.308 | OTUB2 % labeling [2]: 32% | NUDT7 % labeling [3]: 0%

O=C(CCl)Nc1cc2[nH]c(=O)[nH]c2cc1Br [PCM-0102388, O=C(CCl)Nc1cc2[nH]c(=O)[nH]c2cc1Br]
ln(avg k) [1, 4]: -15.369 | ln(avg k) [1, 5]: -15.369 | OTUB2 % labeling [2]: 56% | NUDT7 % labeling [3]: 0%

O=C(Nc1ccccc1O)C1CCN(C(=O)CCl)CC1 [PCM-0102389, O=C(Nc1ccccc1O)C1CCN(C(=O)CCl)CC1]
ln(avg k) [1, 4]: -15.332 | ln(avg k) [1, 5]: -15.332 | OTUB2 % labeling [2]: 14% | NUDT7 % labeling [3]: 10%
